According to patent US10670605B2, “Cysteine reactive probes and uses thereof” (The Scripps Research Institute, priority 2015, dated 2020):

Assays:
Assay in all cases: Competitive isoTOP-ABPP in situ (fragment-treated cells)
Type in all cases: cell-based
[1] = biological target: cysteines in MDA-MB-231 and Ramos cells (Homo sapiens, UniProt P16455); details: 200 μM, insitu, ramos
[2] = biological target: cysteines in MDA-MB-231 and Ramos cells (Homo sapiens, UniProt P41226); details: 200 μM, insitu, 231
Sequence of cysteines in MDA-MB-231 and Ramos cells (Homo sapiens, UniProt P41226) (P41226 whole entry): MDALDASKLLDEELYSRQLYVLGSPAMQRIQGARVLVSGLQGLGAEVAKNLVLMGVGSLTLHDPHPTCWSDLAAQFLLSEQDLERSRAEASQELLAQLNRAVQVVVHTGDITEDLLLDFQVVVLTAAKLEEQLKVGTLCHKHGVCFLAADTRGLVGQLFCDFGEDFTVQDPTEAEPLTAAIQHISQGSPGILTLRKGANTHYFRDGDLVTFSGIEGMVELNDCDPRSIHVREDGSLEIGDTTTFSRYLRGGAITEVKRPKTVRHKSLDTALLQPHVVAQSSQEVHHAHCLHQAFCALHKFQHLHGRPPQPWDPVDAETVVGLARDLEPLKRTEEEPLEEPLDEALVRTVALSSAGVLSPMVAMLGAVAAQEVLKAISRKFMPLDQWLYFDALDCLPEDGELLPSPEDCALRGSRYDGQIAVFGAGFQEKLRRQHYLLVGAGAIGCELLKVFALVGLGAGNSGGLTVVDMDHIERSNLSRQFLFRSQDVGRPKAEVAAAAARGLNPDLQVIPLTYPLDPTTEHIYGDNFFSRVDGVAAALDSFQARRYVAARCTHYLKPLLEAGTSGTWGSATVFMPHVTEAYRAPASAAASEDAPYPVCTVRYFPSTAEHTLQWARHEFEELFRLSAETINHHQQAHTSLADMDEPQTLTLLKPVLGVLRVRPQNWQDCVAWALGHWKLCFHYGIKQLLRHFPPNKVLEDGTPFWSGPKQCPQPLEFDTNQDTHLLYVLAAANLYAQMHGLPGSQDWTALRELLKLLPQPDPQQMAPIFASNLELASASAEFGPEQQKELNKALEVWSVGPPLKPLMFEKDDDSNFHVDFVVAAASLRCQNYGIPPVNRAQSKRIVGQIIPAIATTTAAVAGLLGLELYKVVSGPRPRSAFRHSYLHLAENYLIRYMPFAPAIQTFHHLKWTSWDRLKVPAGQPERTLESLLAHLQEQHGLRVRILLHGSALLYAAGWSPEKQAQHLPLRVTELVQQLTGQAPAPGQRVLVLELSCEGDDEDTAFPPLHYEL

[3] = biological target: T1, cysteines in MDA-MB-231 and Ramos cells (Homo sapiens, UniProt P42695); details: 200 μM, insitu
T1 sequence (P42695 1-1498): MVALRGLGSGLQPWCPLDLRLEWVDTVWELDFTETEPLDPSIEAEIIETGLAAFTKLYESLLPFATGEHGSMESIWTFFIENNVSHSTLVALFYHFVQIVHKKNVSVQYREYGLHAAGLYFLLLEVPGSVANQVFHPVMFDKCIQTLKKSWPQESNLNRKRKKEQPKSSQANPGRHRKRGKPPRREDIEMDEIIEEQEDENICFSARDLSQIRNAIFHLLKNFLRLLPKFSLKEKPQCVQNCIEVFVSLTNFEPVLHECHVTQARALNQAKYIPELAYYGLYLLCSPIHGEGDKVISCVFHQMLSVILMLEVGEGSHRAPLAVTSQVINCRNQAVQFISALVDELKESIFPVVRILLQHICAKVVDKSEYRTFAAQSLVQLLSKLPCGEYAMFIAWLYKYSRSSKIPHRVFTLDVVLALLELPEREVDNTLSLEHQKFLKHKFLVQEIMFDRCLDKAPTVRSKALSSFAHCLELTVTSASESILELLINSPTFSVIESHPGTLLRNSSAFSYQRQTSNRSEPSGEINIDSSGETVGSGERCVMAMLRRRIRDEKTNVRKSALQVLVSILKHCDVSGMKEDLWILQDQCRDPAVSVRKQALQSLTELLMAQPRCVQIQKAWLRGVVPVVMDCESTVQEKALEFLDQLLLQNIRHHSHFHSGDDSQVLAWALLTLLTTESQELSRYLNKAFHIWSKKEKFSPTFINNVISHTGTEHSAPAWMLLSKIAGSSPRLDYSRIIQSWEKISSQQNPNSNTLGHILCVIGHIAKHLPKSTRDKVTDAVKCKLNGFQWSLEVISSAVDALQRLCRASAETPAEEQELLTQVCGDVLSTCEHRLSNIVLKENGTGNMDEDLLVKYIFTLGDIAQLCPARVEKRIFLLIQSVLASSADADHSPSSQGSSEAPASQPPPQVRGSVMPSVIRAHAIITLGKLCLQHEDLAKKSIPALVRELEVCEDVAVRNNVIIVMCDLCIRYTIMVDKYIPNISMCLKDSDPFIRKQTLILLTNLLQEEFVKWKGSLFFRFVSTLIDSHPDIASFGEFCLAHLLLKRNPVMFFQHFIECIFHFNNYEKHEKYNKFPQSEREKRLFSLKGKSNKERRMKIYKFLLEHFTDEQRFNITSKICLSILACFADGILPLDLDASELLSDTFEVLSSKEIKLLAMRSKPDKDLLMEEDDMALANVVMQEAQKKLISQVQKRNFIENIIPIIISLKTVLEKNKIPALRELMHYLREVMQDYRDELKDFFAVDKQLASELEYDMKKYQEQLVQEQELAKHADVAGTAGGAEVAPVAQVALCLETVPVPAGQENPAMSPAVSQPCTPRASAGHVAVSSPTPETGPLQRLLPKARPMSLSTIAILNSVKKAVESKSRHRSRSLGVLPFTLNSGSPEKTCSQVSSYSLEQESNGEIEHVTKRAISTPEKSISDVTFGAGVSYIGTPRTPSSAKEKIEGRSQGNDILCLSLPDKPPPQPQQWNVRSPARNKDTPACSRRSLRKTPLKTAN

[4] = biological target: cysteines in MDA-MB-231 and Ramos cells (Homo sapiens, UniProt Q99986)
Sequence of cysteines in MDA-MB-231 and Ramos cells (Homo sapiens, UniProt Q99986) (Q99986 whole entry): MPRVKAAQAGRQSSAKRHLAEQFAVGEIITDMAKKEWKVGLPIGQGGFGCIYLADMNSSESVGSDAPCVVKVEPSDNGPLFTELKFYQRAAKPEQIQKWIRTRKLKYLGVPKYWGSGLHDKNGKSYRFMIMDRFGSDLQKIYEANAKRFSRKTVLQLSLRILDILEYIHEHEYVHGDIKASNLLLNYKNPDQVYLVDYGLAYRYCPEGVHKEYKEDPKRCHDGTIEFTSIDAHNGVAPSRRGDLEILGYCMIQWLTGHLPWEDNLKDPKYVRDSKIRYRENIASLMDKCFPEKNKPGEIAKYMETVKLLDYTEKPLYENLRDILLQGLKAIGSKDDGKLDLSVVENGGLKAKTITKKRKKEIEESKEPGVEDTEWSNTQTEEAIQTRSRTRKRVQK

[5] = biological target: cysteines in MDA-MB-231 and Ramos cells (Homo sapiens, UniProt Q9Y2S7); details: 200 μM, insitu, 231
Sequence of cysteines in MDA-MB-231 and Ramos cells (Homo sapiens, UniProt Q9Y2S7) (Q9Y2S7 52-368): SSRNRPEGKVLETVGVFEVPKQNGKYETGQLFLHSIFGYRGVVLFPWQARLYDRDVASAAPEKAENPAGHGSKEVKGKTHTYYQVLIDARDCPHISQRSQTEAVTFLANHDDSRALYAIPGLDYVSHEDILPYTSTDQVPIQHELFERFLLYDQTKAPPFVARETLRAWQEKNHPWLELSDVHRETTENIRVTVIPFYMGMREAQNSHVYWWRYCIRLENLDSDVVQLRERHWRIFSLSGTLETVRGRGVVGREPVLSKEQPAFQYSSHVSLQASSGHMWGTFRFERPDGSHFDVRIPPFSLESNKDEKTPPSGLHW

[6] = biological target: cysteines in MDA-MB-231 and Ramos cells (Homo sapiens, UniProt Q13232); details: 200 μM, insitu
Sequence of cysteines in MDA-MB-231 and Ramos cells (Homo sapiens, UniProt Q13232) (Q13232 whole entry): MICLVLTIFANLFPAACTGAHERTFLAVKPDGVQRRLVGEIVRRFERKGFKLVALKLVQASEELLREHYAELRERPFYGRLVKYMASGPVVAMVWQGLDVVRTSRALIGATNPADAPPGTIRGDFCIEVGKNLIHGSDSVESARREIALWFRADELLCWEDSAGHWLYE

[7] = biological target: T2, cysteines in MDA-MB-231 and Ramos cells (Homo sapiens, UniProt Q8NEC7); details: 200 μM, insitu
T2 sequence (Q8NEC7 1-633): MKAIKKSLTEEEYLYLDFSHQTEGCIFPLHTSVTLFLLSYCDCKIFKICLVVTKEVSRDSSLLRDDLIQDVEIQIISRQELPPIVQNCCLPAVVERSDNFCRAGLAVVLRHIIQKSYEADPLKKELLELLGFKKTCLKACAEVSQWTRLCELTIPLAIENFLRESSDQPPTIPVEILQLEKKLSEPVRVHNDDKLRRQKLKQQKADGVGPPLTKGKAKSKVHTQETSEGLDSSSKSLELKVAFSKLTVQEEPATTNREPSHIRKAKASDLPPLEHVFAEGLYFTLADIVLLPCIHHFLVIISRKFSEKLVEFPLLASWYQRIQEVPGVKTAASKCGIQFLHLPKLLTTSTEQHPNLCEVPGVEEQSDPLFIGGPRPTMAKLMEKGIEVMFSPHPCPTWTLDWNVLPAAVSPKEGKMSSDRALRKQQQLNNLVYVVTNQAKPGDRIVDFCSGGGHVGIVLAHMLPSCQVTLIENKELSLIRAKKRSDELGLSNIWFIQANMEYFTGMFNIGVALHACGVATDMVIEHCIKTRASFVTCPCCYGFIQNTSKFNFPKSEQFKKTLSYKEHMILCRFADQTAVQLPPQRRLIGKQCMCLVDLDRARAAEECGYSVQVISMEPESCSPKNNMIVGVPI

[8] = biological target: cysteines in MDA-MB-231 and Ramos cells (Homo sapiens, UniProt Q9P2X3); details: 200 μM, insitu, 231
Sequence of cysteines in MDA-MB-231 and Ramos cells (Homo sapiens, UniProt Q9P2X3) (Q9P2X3 whole entry): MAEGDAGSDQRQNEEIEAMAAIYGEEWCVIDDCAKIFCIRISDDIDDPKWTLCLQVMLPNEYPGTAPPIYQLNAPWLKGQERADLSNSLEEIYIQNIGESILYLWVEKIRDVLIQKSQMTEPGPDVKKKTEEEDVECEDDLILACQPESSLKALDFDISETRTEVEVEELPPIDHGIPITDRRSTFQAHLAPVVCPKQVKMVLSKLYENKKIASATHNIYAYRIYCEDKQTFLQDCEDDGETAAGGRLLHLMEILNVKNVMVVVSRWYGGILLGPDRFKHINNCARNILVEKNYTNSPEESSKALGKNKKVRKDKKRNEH

[9] = biological target: cysteines in MDA-MB-231 and Ramos cells (Homo sapiens, UniProt Q9NZB2); details: 200 μM, insitu, 231
Sequence of cysteines in MDA-MB-231 and Ramos cells (Homo sapiens, UniProt Q9NZB2) (Q9NZB2 whole entry): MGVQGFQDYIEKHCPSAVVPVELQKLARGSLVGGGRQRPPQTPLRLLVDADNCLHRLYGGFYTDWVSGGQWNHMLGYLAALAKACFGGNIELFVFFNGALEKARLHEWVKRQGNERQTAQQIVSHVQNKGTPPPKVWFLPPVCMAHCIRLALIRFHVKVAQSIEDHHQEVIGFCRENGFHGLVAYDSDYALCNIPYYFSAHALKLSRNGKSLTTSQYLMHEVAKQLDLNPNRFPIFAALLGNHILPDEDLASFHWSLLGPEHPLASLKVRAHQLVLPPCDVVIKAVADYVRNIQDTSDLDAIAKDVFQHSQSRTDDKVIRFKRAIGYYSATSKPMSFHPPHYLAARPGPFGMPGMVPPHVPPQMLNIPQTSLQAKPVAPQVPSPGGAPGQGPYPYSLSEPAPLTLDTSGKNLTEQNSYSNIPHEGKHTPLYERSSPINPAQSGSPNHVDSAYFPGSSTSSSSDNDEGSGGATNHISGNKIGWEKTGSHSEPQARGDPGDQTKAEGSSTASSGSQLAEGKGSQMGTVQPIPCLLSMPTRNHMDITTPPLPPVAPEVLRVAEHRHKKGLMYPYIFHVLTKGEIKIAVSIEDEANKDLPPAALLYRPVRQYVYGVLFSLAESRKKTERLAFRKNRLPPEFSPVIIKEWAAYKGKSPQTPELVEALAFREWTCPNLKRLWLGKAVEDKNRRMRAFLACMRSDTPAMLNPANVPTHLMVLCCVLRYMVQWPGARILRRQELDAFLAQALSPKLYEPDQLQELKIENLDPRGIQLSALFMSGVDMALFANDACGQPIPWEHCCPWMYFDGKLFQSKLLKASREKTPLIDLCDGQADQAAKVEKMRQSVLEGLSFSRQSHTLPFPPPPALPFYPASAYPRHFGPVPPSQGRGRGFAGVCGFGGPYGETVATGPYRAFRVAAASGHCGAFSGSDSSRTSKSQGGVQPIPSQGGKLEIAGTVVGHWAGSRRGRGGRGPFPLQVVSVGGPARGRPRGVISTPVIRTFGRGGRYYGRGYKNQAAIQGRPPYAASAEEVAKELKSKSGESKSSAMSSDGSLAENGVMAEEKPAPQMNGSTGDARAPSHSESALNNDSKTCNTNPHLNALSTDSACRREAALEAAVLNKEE

[10] = biological target: cysteines in MDA-MB-231 and Ramos cells (Homo sapiens, UniProt A2A288); details: 200 μM, insitu, ramos
Sequence of cysteines in MDA-MB-231 and Ramos cells (Homo sapiens, UniProt A2A288) (A2A288 whole entry): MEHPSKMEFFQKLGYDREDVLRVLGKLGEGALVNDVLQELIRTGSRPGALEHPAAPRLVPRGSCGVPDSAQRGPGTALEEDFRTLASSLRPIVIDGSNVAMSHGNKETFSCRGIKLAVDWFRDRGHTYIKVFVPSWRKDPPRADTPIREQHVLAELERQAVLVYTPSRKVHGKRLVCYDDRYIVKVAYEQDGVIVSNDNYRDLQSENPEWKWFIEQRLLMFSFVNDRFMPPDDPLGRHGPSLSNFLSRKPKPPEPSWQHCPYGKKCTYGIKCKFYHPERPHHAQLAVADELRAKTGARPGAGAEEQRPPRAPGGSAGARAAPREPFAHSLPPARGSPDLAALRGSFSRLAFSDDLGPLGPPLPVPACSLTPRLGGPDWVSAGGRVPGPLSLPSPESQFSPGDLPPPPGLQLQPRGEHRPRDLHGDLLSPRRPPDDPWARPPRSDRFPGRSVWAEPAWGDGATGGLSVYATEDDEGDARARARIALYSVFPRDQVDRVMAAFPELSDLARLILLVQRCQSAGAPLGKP

[11] = biological target: cysteines in MDA-MB-231 and Ramos cells (Homo sapiens, UniProt Q6PJG6); details: 200 μM, insitu, ramos
Sequence of cysteines in MDA-MB-231 and Ramos cells (Homo sapiens, UniProt Q6PJG6) (Q6PJG6 whole entry): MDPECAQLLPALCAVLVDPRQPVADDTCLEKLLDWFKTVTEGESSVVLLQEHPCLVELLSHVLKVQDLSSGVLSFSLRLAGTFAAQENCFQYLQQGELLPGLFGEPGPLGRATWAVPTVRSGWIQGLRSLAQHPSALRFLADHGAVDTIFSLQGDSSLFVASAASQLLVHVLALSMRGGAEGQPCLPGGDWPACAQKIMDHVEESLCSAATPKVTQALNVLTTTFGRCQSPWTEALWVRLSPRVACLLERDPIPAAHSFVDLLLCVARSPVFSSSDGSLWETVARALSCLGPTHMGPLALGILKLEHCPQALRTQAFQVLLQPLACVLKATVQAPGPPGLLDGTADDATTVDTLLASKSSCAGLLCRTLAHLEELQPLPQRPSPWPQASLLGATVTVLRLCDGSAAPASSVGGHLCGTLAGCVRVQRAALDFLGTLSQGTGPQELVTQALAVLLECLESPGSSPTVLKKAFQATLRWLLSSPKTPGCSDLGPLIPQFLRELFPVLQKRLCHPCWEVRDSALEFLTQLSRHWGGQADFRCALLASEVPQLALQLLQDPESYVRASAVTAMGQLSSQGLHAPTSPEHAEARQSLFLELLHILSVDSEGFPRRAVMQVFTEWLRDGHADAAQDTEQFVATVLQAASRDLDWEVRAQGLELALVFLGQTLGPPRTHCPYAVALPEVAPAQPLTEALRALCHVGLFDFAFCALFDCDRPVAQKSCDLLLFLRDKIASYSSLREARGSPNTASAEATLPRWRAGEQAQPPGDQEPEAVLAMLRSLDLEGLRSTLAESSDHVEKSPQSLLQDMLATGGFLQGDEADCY

[12] = biological target: cysteines in MDA-MB-231 and Ramos cells (Homo sapiens, UniProt Q13613); details: 200 μM, insitu

Sequence of cysteines in MDA-MB-231 and Ramos cells (Homo sapiens, UniProt P16455) (P16455 whole entry): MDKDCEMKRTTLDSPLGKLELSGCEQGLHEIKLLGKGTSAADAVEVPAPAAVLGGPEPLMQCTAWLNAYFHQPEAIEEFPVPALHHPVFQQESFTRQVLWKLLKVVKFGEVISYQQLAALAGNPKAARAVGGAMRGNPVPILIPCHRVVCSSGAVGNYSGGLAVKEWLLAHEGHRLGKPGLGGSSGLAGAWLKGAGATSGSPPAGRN

O=C(CCl)N1CCN(S(=O)(=O)c2ccccc2F)CC1 [compound 10]
isoTOP-ABPP ratio, cysteine P16455_C145 [1]: 20.0 | isoTOP-ABPP ratio, cysteine P41226_C599 [2]: 8.0 | isoTOP-ABPP ratio, cysteine P42695_C541 [3]; 231: 20.0 | isoTOP-ABPP ratio, cysteine P42695_C541 ([3]; ramos): 6.5 | isoTOP-ABPP ratio, cysteine Q99986_C50 ([4]; 200 μM, insitu, ramos): 0 .7 | isoTOP-ABPP ratio, cysteine Q9Y2S7_C143 [5]: 13.9

CC1CCc2ccccc2N1C(=O)CCl (centres unmarked) [compound 45]
isoTOP-ABPP ratio Q13232_C158 [6]; 231: 8.8 | isoTOP-ABPP ratio Q8NEC7_C140 [7]; 231: 20.0 | reactivity profile of liganded cysteine Q99986_C50 with fragment electrophile (isoTOP-ABPP ratio) ([4]; cysteine Q99986_C50, fragment 200 μM, in situ, 231 (MDA-MB-231) cells): 4.1 | isoTOP-ABPP ratio Q9P2X3_C195 [8]: 20.0

Cc1ccc(C=C(C#N)C(=O)NCCN2CCOCC2)cc1 [compound 41]
isoTOP-ABPP ratio Q9Y2S7_C143 [5]: 1.2

O=C(CCl)NC(=O)NC12CC3CC(CC(C3)C1)C2 [compound 12]
isoTOP-ABPP ratio, cysteine Q9NZB2_C531 [9]: 20.0

C=CC(=O)N(Cc1cccnc1)c1cc(C(F)(F)F)cc(C(F)(F)F)c1 [compound 31]
isoTOP-ABPP ratio A2A288_C367 [10]: 1.9 | isoTOP-ABPP ratio, P16455_C145 [1]: 1.2 | isoTOP-ABPP ratio Q6PJG6_C673 [11]: 20.0 | isoTOP-ABPP ratio Q9P2X3_C195 [8]: 0.5

O=C(CCl)NCCc1c[nH]c2ccccc12 [compound 13]
isoTOP-ABPP ratio, cysteine Q8NEC7_C140 [7]; 231: 1.8 | isoTOP-ABPP ratio, cysteine Q8NEC7_C140 ([7]; ramos): 20.0

O=C(CCl)N1CCN(CC(=O)N2CCOCC2)CC1 [compound 29]
isoTOP-ABPP ratio A2A288_C367 [10]: 1.3 | isoTOP-ABPP ratio Q13232_C158 ([6]; ramos): 1.5 | isoTOP-ABPP ratio Q13613_C117 ([12]; ramos): 1.5 | isoTOP-ABPP ratio Q6PJG6_C673 [11]: 4.6

O=C(CCl)NC12CC3CC(CC(C3)C1)C2 [compound 21]
isoTOP-ABPP ratio, cysteine P41226_C599 [2]: 1.0 | isoTOP-ABPP ratio, cysteine P42695_C541 [3]; 231: 2.3 | isoTOP-ABPP ratio, cysteine Q13613_C117 [12]; 231: 0.9 | isoTOP-ABPP ratio, cysteine Q9NZB2_C531 [9]: 1.6
